Assay results reported in patent US8173771B2, “Humanin receptor or humanin-like polypeptide receptor” (Keio Univeristy, priority 2005, dated 2012).
Peptide text beside a SMILES is read from it.

Test system: STAT3
Assay: Immunoblot of phosphotyrosine 705 of STAT3 in F11 cells
Type: cell-based
Protocol: E) F11 cells were transfected with an indicated amount of pRNA-U6.1/Shuttle vector (empty), pRNA-U6.1/Shuttle-IL-6R siRNA, or pRNA-U6.1/Shuttle-LIFR siRNA. At 48 hrs after transfection, the cells were treated with 100 ng/ml IL-6, 100 ng/ml CNTF or 1 μM HNG at 37° for 15 min, and harvested. The results of immunoblot analysis using anti-phophoSTAT3 ([…]) antibody and anti-STAT3 antibody were shown in photos. A) F11 cells were added with an indicated amount of HN, HNG or HNA and harvested 15 min later for immunoblot analysis with antibodies recognizing phosphotyrosine 705 of STAT3 or STAT3. The results are shown in photos. B) F11 cells were transfected with 0.5 μg of pRNA-U1.6/Shuttle vector, pRNA-U6.1/Shuttle-WSX-1 siRNA, pRNA-U6.1/Shuttle-CNTF-R siRNA, both pRNA-U6.1/Shuttle-WSX-1 siRNA and pRNA-U6.1/Shuttle-CNTF-R siRNA (0.5 μg each), or pRNA-U6.1/Shuttle-FPR2 siRNA. The total amount of vectors was adjusted to be 1.0 μg by including a backbone vector. […] The results are shown in photos. Cell lysates (10-20 μg/lane) or pulled-down precipitates were subject to SDS-PAGE, and the proteins separated on the gel were transferred onto polyvinylidene difluoride membranes as described (Hashimoto et al, 2000). Visualization of the immunoreactive protein bands was performed by ECL (Amersham Pharmacia Biotech, Uppsala, Sweden).

CC[C@H](C)[C@H](NC(=O)[C@H](CCC(=O)O)NC(=O)CNC(=O)[C@@H](NC(=O)[C@H](CC(C)C)NC(=O)[C@H](CC(C)C)NC(=O)[C@H](CC(C)C)NC(=O)[C@H](CC(C)C)NC(=O)[C@H](CS)NC(=O)[C@H](CO)NC(=O)[C@H](Cc1ccccc1)NC(=O)CNC(=O)[C@H](CCCNC(=N)N)NC(=O)[C@@H]1CCCN1C(=O)[C@H](C)NC(=O)[C@@H](N)CCSC)[C@@H](C)O)C(=O)N[C@@H](CC(=O)O)C(=O)N[C@@H](CC(C)C)C(=O)N1CCC[C@H]1C(=O)N[C@H](C(=O)N[C@@H](CCCCN)C(=O)N[C@@H](CCCNC(=N)N)C(=O)N[C@@H](CCCNC(=N)N)C(=O)N[C@@H](C)C(=O)O)C(C)C [HNG, S14 G-Humanin] (H-MAPRGFSCLLLLTGEIDLPVKRRA-OH; N-terminus and C-terminus assumed)
phosphorylation of tyrosine 705 of STAT3 (F11 cells, 15 min): increased
phosphorylation of tyrosine 705 of STAT3 (decrease of expression of endogenous CNTF-R or WSX-1 by siRNA): almost completely inhibited
